Test results published in patent US6809208B2, “3-Arylbenzofuranones with electron-withdrawing substituents as stabilizers” (Ciba Specialty Chemicals Corporation, priority 2000, dated 2004).

Experiments:
[1] = Stabilization of polyesters (rancimate, conductivity of separation products); details: 0.20% stabilizer; 1 hour under pure oxygen at 290° C.; without stabilizer 47
Protocol: 2.5 kg of a polyester which has been dried for 12 hours at 120° C. in a vacuum drying oven (Polyclear® T86, of Hoechst) is charged with the stabilizers listed in Table 23 and is mixed for 2 hours in a Henschel mixer. This mixture is then extruded in a Schwabenthan extruder at a maximum of 275° C. The polymer string is then granulated. The granulate so obtained is dried for another 12 hours in a vacuum drying oven. In a double determination, 500 mg of the granulate is heated over 10 minutes to 290° C. and is stored for 1 hour under pure oxygen in a rancimate at 290° C. The resulting gaseous separation products are continuously led into an aqueous collecting solution and the conductivity (μS) of this solution is continuously measured. Low conductivity values signify that few separation products are formed, high conductivity values signify that very many separation products are formed. […]

[2] = Stabilization of polycarbonate (yellowness index of extruded granulate); details: 0.05% stabilizer; granulate after extrusion at a maximum of 280° C.; without stabilizer 10.3
Protocol: 1.0 kg of a polycarbonate powder which has been dried for 8 hours at 120° C. in a vacuum drying oven (Lexan®145, of General Electric) is charged with the stabilizers listed in Table 22 and is then mixed for 2 minutes in a Henschel mixer. This mixture is then extruded in a Schwabenthan extruder at a maximum of 280° C. The polymer string is then granulated. The granulate so obtained is packed into 1 cm thick polystyrene boxes and the yellowness index (YI) is determined according to ASTM D 1925-70. Low YI values denote little discoloration, high YI values high discoloration of the samples. […]

[3] = Stabilization of multiple-extruded polypropylene at high temperature; design: unit not given here; details: stabilizer 0.100% by weight, measured at 230° C./2.16 kg
Protocol: This blend is then extruded in an extruder having a cylinder diameter of 20 mm and a length of 400 mm at 100 rpm, the 3 heating zones being adjusted to the following temperatures: 280, 320, 340° C. The extrudate is cooled by drawing it through a water bath and is then granulated. This granulate is repeatedly extruded. […] A substantial increase in the melt index denotes pronounced chain degradation, i.e. poor stabilization.

[4] = Stabilization of polycarbonate (time at 135° C. until YI = 20); details: 0.05% stabilizer; without stabilizer 1560
Protocol: 1.0 kg of a polycarbonate powder which has been dried for 8 hours at 120° C. in a vacuum drying oven (Lexan®145, of General Electric) is charged with the stabilizers listed in Table 19 and is mixed for 2 minutes in a Henschel mixer. This mixture is then extruded in a Schwabenthan extruder at a maximum of 280° C. The polymer string is then granulated. Using an injection moulding machine, plates having a layer thickness of 2 mm are then moulded from the granulate so obtained at a maximum of 300° C. These plates are then aged in a circulating air oven at 135° C., the time in hours until the yellowness index (YI) reaches a value of 20 according to ASTM D 1925-70 being measured. […]

[5] = Stabilization of polycarbonate (oven ageing at 135° C., yellowness index and transmission); details: 0.05% stabilizer
Protocol: This mixture is then extruded in a Schwabenthan extruder at a maximum of 280° C. The polymer string is then granulated. Using an injection moulding machine, plates having a layer thickness of 2 mm are then moulded from the granulate so obtained at a maximum of 300° C. […] Low YI values denote little discoloration, high YI values high discoloration of the patterns. […] The results are compiled in Tables 17 and 18.

SMILES: CC(C)(C)c1cc2c(c(C(C)(C)C)c1)OC(=O)C2c1cccc(C#N)c1 (stereo not shown) [Compound (107)]
- Conductivity [1]: 34 μS

SMILES: Cc1cc(OP(Oc2cc(C)c(C(C)(C)C)cc2C(C)(C)C)c2ccc(-c3ccc(P(Oc4cc(C)c(C(C)(C)C)cc4C(C)(C)C)Oc4cc(C)c(C(C)(C)C)cc4C(C)(C)C)cc3)cc2)c(C(C)(C)C)cc1C(C)(C)C [GSY ®P101]
- Yellowness index [2]: 5.1

SMILES: CC(C)(C)c1ccc(OP(Oc2ccc(C(C)(C)C)cc2C(C)(C)C)Oc2ccc(C(C)(C)C)cc2C(C)(C)C)c(C(C)(C)C)c1 [Irgafos ®168, tris(2,4-di-tert-butylphenyl)phosphite, reference compound]
- Melt index after 5 extrusions ([3]; 280° C.): 9.7
- Melt index after 5 extrusions ([3]; 320° C.): 43.8
- Melt index after 5 extrusions ([3]; 340° C.): 80.1
- Time in hours at 135° C. to YI = 20 [4]: 2000 h
- Yellowness index prior to oven-ageing ([5]; 2 mm plates, ASTM D 1925-70): 3.4
- Transmission in % prior to oven-aging ([5]; at 450 nm): 84.7%
- Transmission in % after 2000 hours at 135° C. ([5]; at 450 nm, without stabilizer 76.4): 77.8%
- Yellowness index after 2000 hours at 135° C. ([5]; circulating air oven, without stabilizer 25.0): 23.5
